Results reported in ChEMBL document CHEMBL1137408, “Acylguanidines as small-molecule beta-secretase inhibitors” (J Med Chem, 2006).

Columns and labels:
Homo sapiens = species: Homo sapiens; test: Selectivity for BACE1 over Cathepsin D
Pepsin A = Pepsin A (Homo sapiens, UniProt P0DJD9); test: Inhibition of pepsin by FRET based peptide cleavage assay
Beta-secretase 2 = molecular target: T1, Beta-secretase 2 (Homo sapiens, UniProt Q9Y5Z0); test: Inhibition of BACE2 by FRET based peptide cleavage assay
T1 sequence (Q9Y5Z0 whole entry): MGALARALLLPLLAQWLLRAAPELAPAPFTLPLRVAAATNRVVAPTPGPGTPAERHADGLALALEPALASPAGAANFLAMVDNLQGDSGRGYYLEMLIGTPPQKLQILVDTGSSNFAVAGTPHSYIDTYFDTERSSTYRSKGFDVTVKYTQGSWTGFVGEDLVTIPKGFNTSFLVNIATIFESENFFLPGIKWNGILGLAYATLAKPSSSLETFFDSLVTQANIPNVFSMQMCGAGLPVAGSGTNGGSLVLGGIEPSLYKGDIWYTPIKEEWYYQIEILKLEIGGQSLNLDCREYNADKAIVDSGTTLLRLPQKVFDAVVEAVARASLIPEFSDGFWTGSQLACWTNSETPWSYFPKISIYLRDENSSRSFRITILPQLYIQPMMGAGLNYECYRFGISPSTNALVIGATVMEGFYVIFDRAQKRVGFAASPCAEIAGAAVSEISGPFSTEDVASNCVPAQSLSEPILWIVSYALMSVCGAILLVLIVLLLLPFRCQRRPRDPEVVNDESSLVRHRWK

Cathepsin D = Cathepsin D (Homo sapiens, UniProt P07339); test: Inhibition of cathepsin D by FRET based peptide cleavage assay
Cathepsin D, sequence (P07339 65-162 limits assumed): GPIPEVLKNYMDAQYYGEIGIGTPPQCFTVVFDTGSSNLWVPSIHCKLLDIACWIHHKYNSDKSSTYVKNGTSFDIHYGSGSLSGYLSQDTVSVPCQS
Cathepsin D, sequence (P07339 169-412 limits assumed): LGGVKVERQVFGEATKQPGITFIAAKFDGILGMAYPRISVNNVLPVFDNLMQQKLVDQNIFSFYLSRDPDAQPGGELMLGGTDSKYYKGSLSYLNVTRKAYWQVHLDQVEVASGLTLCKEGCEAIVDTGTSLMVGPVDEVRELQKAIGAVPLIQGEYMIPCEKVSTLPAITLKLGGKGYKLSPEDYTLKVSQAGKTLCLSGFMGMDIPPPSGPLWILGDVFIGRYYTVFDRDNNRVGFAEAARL

Beta-secretase 1 = Beta-secretase 1 (Homo sapiens, UniProt P56817); test: Inhibition of human recombinant BACE1 by FRET based peptide cleavage assay
Beta-secretase 1, sequence (P56817 whole entry): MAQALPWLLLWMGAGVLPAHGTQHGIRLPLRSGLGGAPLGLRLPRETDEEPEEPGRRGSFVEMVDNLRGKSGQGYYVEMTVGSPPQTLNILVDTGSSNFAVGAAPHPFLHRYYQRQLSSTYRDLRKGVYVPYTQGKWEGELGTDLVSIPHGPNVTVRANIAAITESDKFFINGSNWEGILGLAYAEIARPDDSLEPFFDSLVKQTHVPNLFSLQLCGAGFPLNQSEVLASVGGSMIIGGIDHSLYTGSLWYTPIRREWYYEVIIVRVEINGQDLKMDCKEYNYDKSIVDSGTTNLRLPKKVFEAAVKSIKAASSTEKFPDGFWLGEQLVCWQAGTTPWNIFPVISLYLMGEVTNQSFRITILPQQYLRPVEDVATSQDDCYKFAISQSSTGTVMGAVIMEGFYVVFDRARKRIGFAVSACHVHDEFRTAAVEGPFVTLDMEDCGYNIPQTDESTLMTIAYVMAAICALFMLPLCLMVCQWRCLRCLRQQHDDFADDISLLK

CHO = test: Decrease in beta amyloid protein level in CHO cells expressing human APP by ELISA; format: functional; conditions: Cricetulus griseus, read-out: ED50 (the source's name)
H4 [1] = test: Decrease in beta amyloid protein level in wild type H4 cells by RICA; format: functional, cell-based; conditions: Homo sapiens
H4 [2] = test: Decrease in beta CTF level in wild type H4 cells by RICA; format: functional, cell-based; conditions: Homo sapiens

Pepsin A, sequence (P0DJD9 whole entry): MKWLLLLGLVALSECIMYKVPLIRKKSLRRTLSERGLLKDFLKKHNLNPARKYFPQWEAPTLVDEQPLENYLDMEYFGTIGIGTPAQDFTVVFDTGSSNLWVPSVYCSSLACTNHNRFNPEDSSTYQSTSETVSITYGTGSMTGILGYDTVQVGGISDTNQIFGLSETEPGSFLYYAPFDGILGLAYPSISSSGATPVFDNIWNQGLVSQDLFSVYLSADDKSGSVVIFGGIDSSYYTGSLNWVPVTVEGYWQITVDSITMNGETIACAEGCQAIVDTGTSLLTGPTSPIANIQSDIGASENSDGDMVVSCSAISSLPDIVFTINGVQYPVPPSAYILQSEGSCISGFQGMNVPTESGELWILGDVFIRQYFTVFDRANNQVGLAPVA

Row | Structure (SMILES) | Selectivity ratio (Homo sapiens) | IC50 (Pepsin A) | IC50 (Beta-secretase 2) | IC50 (Cathepsin D) | IC50 (Beta-secretase 1) | EC50 (CHO) | Activity (H4 [1]) | Activity (H4 [2])
1 | CCCOc1ccc(-c2ccc(-c3ccccc3Cl)n2CC(=O)NC(=N)NCCCO)cc1 | – | > 50 µM | 0.34 µM | 5.9 µM | 0.11 µM | – | – | –
2 | N/C(=N/C(=O)Cn1c(-c2ccccc2)ccc1C12CC3CC(CC(C3)C1)C2)NCCCO | > 50 | > 50 µM | 3.5 µM | 19.4 µM | 0.24 µM | 1.8 µM | – | –
3 | NC(N)=NC(=O)Cn1c(-c2ccccc2)ccc1C12CC3CC(CC(C3)C1)C2 | > 50 | > 50 µM | 12.9 µM | 30.2 µM | 0.6 µM | 3.1 µM | – | –

The next lines start with results.

Row | Selectivity ratio (Homo sapiens) | IC50 (Pepsin A) | IC50 (Beta-secretase 2) | IC50 (Cathepsin D) | IC50 (Beta-secretase 1) | Structure (SMILES) | EC50 (CHO) | Activity (H4 [1]) | Activity (H4 [2])
4 | > 50 | – | – | – | – | CCCOc1ccc(-c2ccc(-c3ccccc3Cl)n2CC(=O)/N=C(/N)NCCCO)cc1 | – | – | –
5 | – | > 50 µM | – | – | – | CC(=O)c1ccc(Oc2ccc(-c3ccc(-c4ccccc4Cl)n3CC(=O)NC(=N)N)cc2)cc1 | 8.6 µM | – | –
6 | – | > 50 µM | – | – | – | N=C(N)NC(=O)Cn1c(-c2ccccc2)ccc1-c1ccccc1 | – | Dose-dependent effect | Dose-dependent effect
